pIC50: −log10 of the molar value.
Biological target: T1, Serine/threonine-protein kinase Chk1 (Homo sapiens, UniProt O14757)
T1 sequence (O14757 whole entry): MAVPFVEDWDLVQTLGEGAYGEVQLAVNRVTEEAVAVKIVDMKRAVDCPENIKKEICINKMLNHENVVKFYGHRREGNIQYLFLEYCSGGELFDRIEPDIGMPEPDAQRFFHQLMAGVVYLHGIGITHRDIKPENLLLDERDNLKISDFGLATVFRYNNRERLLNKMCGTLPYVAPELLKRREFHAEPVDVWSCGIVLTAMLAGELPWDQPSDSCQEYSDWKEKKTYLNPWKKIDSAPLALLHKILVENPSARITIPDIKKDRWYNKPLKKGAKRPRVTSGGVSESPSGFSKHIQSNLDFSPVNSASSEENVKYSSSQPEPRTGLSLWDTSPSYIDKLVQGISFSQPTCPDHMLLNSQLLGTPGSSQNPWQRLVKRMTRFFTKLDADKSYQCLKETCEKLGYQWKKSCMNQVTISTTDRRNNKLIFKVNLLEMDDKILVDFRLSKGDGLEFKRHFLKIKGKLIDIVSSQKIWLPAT
Assay: Chk1 Enzymatic Assay
Conditions: pH 7.5; 30 °C
Protocol: Chk1 kinase activity was assayed in reaction buffer containing substrate peptide, enzyme, and inhibitor in the presence of 100uM ATP/[gamma-33P] ATP. 33P incorporation was measured using a Perkin-Elmer Trilux scintillation counter. The IC50 is the inhibitor concentration, which inhibits 50% of kinase activity that catalyzes the transfer of the terminal phosphate from 33P labeled ATP to the substrate.

SMILES | pIC50
Clc1cc2c(cc1CN=Nc1nnc3c(n1)[nH]c1ccccc13)OCO2 [(1E)-1-[(6-chloro-2H-1,3-benzodioxol-5-yl)methylidene]-2-{5H-[1,2,4]triazino[5,6-b]indol-3-yl}hydrazine] | 4.70
COc1ccc(Cl)cc1-c1nnc(Nc2ccc(C(=O)O)cc2)s1 [4-{[5-(5-chloro-2-methoxyphenyl)-1,3,4-thiadiazol-2-yl]amino}benzoic acid] | 4.58
NN1C(=O)C([c-]2c(=O)[nH]c3ccc([N+](=O)[O-])cc32)=[S+]C1=S [3-amino-5-[(3Z)-5-nitro-2-oxo-2,3-dihydro-1H-indol-3-ylidene]-2-sulfanylidene-1,3-thiazolidin-4-one] | 4.14
Nc1ncnc2nc(SCC(=O)O)[nH]c12 [2-[(6-amino-9H-purin-8-yl)sulfanyl]acetic acid] | 4.50
NCCCNc1nc(F)c(Cl)c(C2c3ccccc3Sc3ccccc32)c1F [N-(3-aminopropyl)-5-chloro-3,6-difluoro-4-(9H-thioxanthen-9-yl)pyridin-2-amine] | 4.80
Cc1[nH]nc2c1C(c1ccc(O)c(O)c1)C(C#N)C(=N)O2 (stereo unspecified) [6-amino-4-(3,4-dihydroxyphenyl)-3-methyl-1H,4H-pyrano[2,3-c]pyrazole-5-carbonitrile] | 4.69
